Measured values published in patent US9562044B2, “2-acylaminothiazole derivative or salt thereof” (ASTELLAS PHARMA INC., priority 2013, dated 2017).

Legend:
human c-Mpl receptor [1] = target: T1, human c-Mpl receptor (Homo sapiens, UniProt P40238); conditions: positive control; as disclosed in Patent Document 1; cited from earlier work
T1 construct: expressed in transfected cells
T1 sequence (P40238 26-635): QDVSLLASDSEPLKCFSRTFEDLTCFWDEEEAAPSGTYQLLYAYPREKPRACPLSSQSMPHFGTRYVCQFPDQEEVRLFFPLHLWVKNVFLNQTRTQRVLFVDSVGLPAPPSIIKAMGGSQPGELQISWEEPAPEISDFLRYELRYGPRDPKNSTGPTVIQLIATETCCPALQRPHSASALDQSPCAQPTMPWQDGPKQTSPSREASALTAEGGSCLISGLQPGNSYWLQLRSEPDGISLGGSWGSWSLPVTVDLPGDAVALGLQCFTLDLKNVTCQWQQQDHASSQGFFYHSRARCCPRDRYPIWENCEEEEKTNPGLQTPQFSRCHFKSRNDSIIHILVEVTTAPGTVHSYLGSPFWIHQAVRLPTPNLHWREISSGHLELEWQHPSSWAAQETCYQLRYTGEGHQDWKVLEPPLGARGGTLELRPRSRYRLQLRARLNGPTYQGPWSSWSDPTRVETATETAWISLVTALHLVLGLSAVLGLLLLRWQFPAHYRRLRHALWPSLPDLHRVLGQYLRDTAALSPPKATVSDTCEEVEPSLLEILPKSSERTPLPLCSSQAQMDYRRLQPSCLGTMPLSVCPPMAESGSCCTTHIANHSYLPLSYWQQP

human c-Mpl receptor [2] = target: T1, human c-Mpl receptor; experiment: Human c-Mpl-introduced Ba/F3 cell proliferative activity; type: cell-based; conditions: concentration showing 30% proliferation; 100% = positive control at 1 μM
Experimental: Evaluation of Human c-Mpl-Introduced Ba/F3 Cell Proliferative Activity
The human c-Mpl-introduced Ba/F3 cell proliferative activity was measured by the following method.
As a positive control, 1-(5-{[4-(4-chloro-2-thienyl)-5-{[(2R)-2-methylpyrrolidin-1-yl]methyl}-1,3-thiazol-2-yl]carbamoyl}-3-fluoropyridin-2-yl)piperidine-4-carboxylic acid hydrochloride, which is disclosed as Example 315 in Patent Document 1 and represented by the formula A1, was used. It is known that the compound has a good human c-Mpl-introduced Ba/F3 cell proliferative activity as disclosed in Table 1 of Patent Document 1.
a) Construction of Human c-Mpl Receptor Expression Vector
A human c-mpl receptor gene (GenBank Accession No. M90102.1) was introduced into an expression vector pEF-BOS (Nucleic Acids Res. 18, 5322, 1990).
b) Construction of Cell Stably Expressing Human c-Mpl Receptor
A human c-Mpl receptor expression vector was introduced into a Ba/F3 cell (RIKEN BRC: RCB0805). For the introduction, an electroporation method was used. pEF-BOS-c-mpl (10 μg), pSV2bsr (1 μg, Kaken Pharmaceutical Co., Ltd.) and 1×10^7 Ba/F3 cells were put into a cuvette having a gap width of 0.4 cm, and electroporated under the conditions of 1.5 kV (25 μF) by a Gene Pulser (registered trademark) (BioRad). The cells were cultured in an RPMI-1640 culture medium containing 0.5% WEHI conditioned media (BD Biosciences) and 10% fetal bovine serum for 3 days, and then cultured in an RPMI-1640 culture medium, to which 10 μg/mL blasticidin had been further added, for 30 days to acquire a drug-resistant clone.
c) Measurement of Cell Proliferative Activity
The cells obtained in b) above was cultured in an RPMI-1640 culture medium containing 0.5% WEHI conditioned media, 10% fetal bovine serum, and used. On the day before the experiment, test substances (final concentration of 100 nM to 10 μM) which had been dissolved in a culture medium for assay (RPMI-1640 culture medium containing 10% fetal bovine serum) were added to a 384-well plate (Lot No. 781185, Greiner Bio-One). The cells in the culture medium that had been replaced with a culture medium for assay were dispensed into a 384-well plate, to which the test substances had been added in advance, to 1×10^4 cells/well, and cultured at 37° C. and 5% CO2 overnight. On the experiment day, a solution of a Cell Counting Kit (Dojindo Laboratories) was added to each well of the 384-well plate and cultured at 37° C. and 5% CO2 for about 5 hours. Thereafter, the absorbance (absorption wavelength of 450 nm) of each well was measured using Safire^2™ (TECAN) and used as the index of the number of cells. Further, as a negative control, a well in which the test substance had been not added was prepared.
The absorbance of the well without the test substance was set to 0%, and the absorbance in the case where the positive control was added at a final concentration of 1 μM was set to 100%. From the absorbance in the case where the test substance had been added, a cell proliferation rate (%) was calculated. From the obtained results, the test substance concentration showing 30% proliferation was calculated as an EC30 value by a logistic regression method.

isolated rat bladder = experiment: Transmural electrical field stimulation-induced contraction of isolated rat bladder; conditions: AUC of contractile response, value before treatment = 100%, SD female rat bladder strip, read-out: Enhancement rate of isolated bladder contraction (% of pre)
Experimental: Effects on Transmural Electrical Field Stimulation-Induced Contraction of Isolated Rat Bladder
As an effect on the nerve stimulation-dependent bladder contraction in vitro, the effect of the Example compound of the present invention in the transmural electrical field stimulation-induced contraction of isolated rat bladder was measured by the following method. That is, from the bladder isolated from a Spraque-Dawley (SD) female rat (Japan SLC, Inc.), a longitudinal bladder strip having a width of about 2 mm and a length of about 10 mm was prepared. The prepared bladder strip was suspended in an organ bath filled with 10 mL of a Krebs-Henseleit solution. The Krebs-Henseleit solution was bubbled with 95% O2 and 5% CO2, and kept at 37° C. After stabilization at an initial tension of 1 g, contraction was induced twice with 60 mM KCl. The strip was washed with the Krebs-Henseleit solution and stabilized, and then contraction was induced with transmural electrical field stimulation at 20 V (stimulation frequency of 8 Hz, pulse width of 0.3 msec, and stimulation time of 10 seconds) by an electrical stimulation device (Nihon Kohden Corporation). At an interval of 2 minutes, transmural electrical field stimulation was repeated and the voltage was adjusted to make the contractile amplitude about 50% of the contractile response by 20 V. After stabilization of the contraction by the transmural electrical field stimulation, 10 μL of the test substance (final concentrations of 3 μM, 10 μM, and 30 μM), which had been dissolved in 100% dimethylsulfoxide in advance was added. The test substance was cumulatively administered at the next concentration after the contractile response at a lower concentration had been stabilized. The responses were put into a personal computer through PowerLab (registered trademark) (AD Instruments), and analyzed with LabChart (registered trademark) (AD Instruments). The area under the response of each contractile response (area under curve, AUC) was calculated and the value before the treatment with the test substance was set to 100%. Based on this, the enhancement rate of the isolated bladder contraction (% of pre) after the treatment with the test substance was calculated.
The enhancement rates of the isolated bladder contraction due to several 10 μM Example compounds which are the compounds of the formula (I) are shown in Table 2.

| Structure (SMILES) | melting point [°C] | other results |
| --- | --- | --- |
| C[C@@H]1CCCN1Cc1sc(NC(=O)c2cnc(N3CCC(C(=O)O)CC3)c(F)c2)nc1-c1cc(Cl)cs1.Cl [Example A1, 1-(5-{[4-(4-chloro-2-thienyl)-5-{[(2R)-2-methylpyrrolidin-1-yl]methyl}-1,3-thiazol-2-yl]carbamoyl}-3-fluoropyridin-2-yl)piperidine-4-carboxylic acid hydrochloride] | – | Human c-Mpl-introduced Ba/F3 cell proliferative activity (Table 1 of Patent Document 1) (human c-Mpl receptor [1]): good |
| CC[C@@H]1CCCN1Cc1sc(NC(=O)c2cnc(N3CCC(C(=O)O)CC3)cn2)nc1-c1ccc(OC)c(C(F)(F)F)c1 [Example 8, 1-{5-[(5-{[(2R)-2-ethylpyrrolidin-1-yl]methyl}-4-[4-methoxy-3-(trifluoromethyl)phenyl]-1,3-thiazol-2-yl)carbamoyl]pyrazin-2-yl}piperidine-4-carboxylic acid] | 194 | – |
| CCCC1CCCN1Cc1sc(NC(=O)c2cnc(N3CCC(C(=O)O)CC3)cn2)nc1-c1ccc(OC)c(C(F)(F)F)c1 (stereo not drawn) [Example 158] | – | Test Example 2 EC30 (human c-Mpl receptor [2]): >10 µM; activity at 10 µM (isolated rat bladder): 125% |

Now from value to compound, other results behind:

| melting point [°C] | Structure (SMILES) | other results |
| --- | --- | --- |
| 136 | COc1cc(-c2nc(NC(=O)c3cnc(N4CCC(C(=O)O)CC4)cn3)sc2CN2CCCC[C@H]2C)cc(C(F)(F)F)c1 [Example 207, 1-{5-[(4-[3-methoxy-5-(trifluoromethyl)phenyl]-5-{[(2R)-2-methylpiperidin-1-yl]methyl}-1,3-thiazol-2-yl)carbamoyl]pyrazin-2-yl}piperidine-4-carboxylic acid] | – |
| 201 | C[C@@H]1CCCN1Cc1sc(NC(=O)c2cnc(N3CCC(C(=O)O)CC3)cn2)nc1-c1cc(Cl)cs1 [Example 206, 1-(5-{[4-(4-chloro-2-thienyl)-5-{[(2R)-2-methylpyrrolidin-1-yl]methyl}-1,3-thiazol-2-yl]carbamoyl}pyrazin-2-yl)piperidine-4-carboxylic acid] | – |
